Laboratory results reported in patent publication US20230149418A1, “METHODS AND SYNERGIC COMPOSITIONS FOR TREATING VIRAL INFECTIONS” (HADASIT MEDICAL RESEARCH SERVICES AND DEVELOPMENT LTD., priority 2018, published 2023).
Where two headings read alike, the source gives them in different places.

How the values were obtained:
human endothelial cells = settings: compared with dihydroartemisinin; cited from earlier work
HCMV = experiment: Ex vivo HCMV infection of human decidual (placental) tissue organ cultures, viral mRNA copy number; assay type: cell-based, human cytomegalovirus; settings: for EC50: Human betaherpesvirus 5; for Dose of drug alone at Fa 0.9: Fa 0.9, drug alone; for DRI (dose reduction index): combination artemisone + maribavir
Description: Organ cultures were washed and stored at -80° C. until assayed. RNA was extracted, and the purified RNA samples were subjected to reverse transcription (RT), followed by quantitative real-time PCR. The viral mRNA copy number was normalized by the cellular housekeeping gene β-actin.
We employed our model of HCMV infection in human decidual tissues (representing the maternal aspect of the chimeric human placenta), maintained as multi-cell-type 3D organ cultures as described in Weisblum Y. et al. J Virol 2011 85(24): 13204-13. doi: 10.1128/JVI.05749-11. For infection of the organ cultures, decidual tissues were placed in 48-well plates and inoculated with the virus (5x10^4 plaque forming units (PFU)/well) for 12 h to allow effective viral adsorption. The tissues were further monitored for viral infection and spread for 7 days. For determination of the drug EC50 values of in the tissues, serial drug concentrations: each drug separately or combination of the drugs were added to the infected decidual tissues during viral adsorption at any further medium replacement to keep the drug concentration constant. The results were compared to samples to which the drug was not added. The EC50 was defined as the drug concentration required to reduce the viral mRNA copy number by 50%. The effect of drug combinations was tested in accordance with the Chou-Talalay method. All comparative experiments were performed in parallel on tissues from the same donor.
The dose reduction index (DRI) was then calculated as described in Chou. As described earlier, the DRI is a measure of how many folds the dose of each drug in a synergistic combination may be reduced at a given effect level compared with the doses of each drug alone. For each one of the below tables: Fa - fraction of virus affected; doses are provided in µm.

[1] = preclinical in vitro and in vivo screens; cited from earlier work
[2] = male rats, 50 mg/kg for 14 days; cited from earlier work

SMILES: CC1CCC2[C@@H](C)[C@H](N3CCS(=O)(=O)CC3)OC3O[C@]4(C)CCC1C32OO4 (stereo in doubt) [artemisone]
- Anti-angiogenic activity (human endothelial cells): significantly less anti-angiogenic than dihydroartemisinin
- EC50 (HCMV; ex vivo, Fa 0.5, drug alone, read-out: Dose of drug alone at Fa 0.5): 425 nM
- EC50 (HCMV; sole drug, ex vivo decidual tissues, read-out: EC50 (concentration required to reduce the viral mRNA copy number by 50%)): 500 nM
- Dose of drug alone at Fa 0.05 (HCMV; ex vivo, Fa 0.05, drug alone): 0.00699 µm
- Dose of drug alone at Fa 0.75 (HCMV; ex vivo, Fa 0.75, drug alone): 1.965 µm
- Dose of drug alone at Fa 0.9 (HCMV; ex vivo): 9.1 µm
- Dose of drug alone at Fa 0.9 (HCMV; ex vivo, listed as Art): 9.098 µm
- Dose of drug alone at Fa 0.95 (HCMV; ex vivo, Fa 0.95, drug alone): 25.7963 µm
- Dose of drug alone at Fa 0.97 (HCMV; ex vivo, Fa 0.97, drug alone): 54.1517 µm
- DRI (dose reduction index) (HCMV; ex vivo, Fa 0.05): 0.1239
- DRI (dose reduction index) (HCMV; ex vivo, Fa 0.5): 1.12
- DRI (dose reduction index) (HCMV; ex vivo, Fa 0.75): 2.546
- DRI (dose reduction index) (HCMV; ex vivo, Fa 0.9): 5.8
- DRI (dose reduction index) (HCMV; ex vivo, Fa 0.9, listed as Art): 5.789
- DRI (dose reduction index) (HCMV; ex vivo, Fa 0.95, listed as Art): 10.1210
- DRI (dose reduction index) (HCMV; ex vivo, Fa 0.97): 15.0614
- Neurotoxicity [1]: does not elicit neurotoxicity
- Tolerability [2]: no effect as compared to controls
